From patent US20240240226A1, “FLUOROGENIC ASSAY FOR RAPID SCREENING OF BACTERIAL BETA-LACTAMASE ACTIVITY” (The Board of Trustees of the Leland Stanford Junior …, priority 2021, published 2024)

What was measured:
[1] = test system: β-lactamases (TEM-1 Bla, AmpC, BlaC, IMP-1, OXA-48, KPC-3); assay: Detection of recombinant β-lactamases by CDA with esterase and H2O2; format: biochemical; conditions: all β-lactamases; esterase 1 μg/mL, H2O2 1 mM, 2 hours, room temperature; 3x SD of negative controls
E. coli/IMP-1 = assay: CDA/H2O2 detection of live E. coli expressing IMP-1 carbapenemase; format: cell-based; conditions: H2O2 1 mM, within 2 hours
Protocol: FIG. 3 illustrates the characterization of CDA with HRP, H2O2, E. coli expressing TEM-1 Bla (E. coli/TEM-1) and IMP-1 carbapenemase (E. coli/IMP-1), and K. pneumoniae expressing KPC carbapenemase (K. pneumoniae/KPC). a) Fluorescence enhancement of CDA incubated with different concentrations of E. coli expressing TEM-1 Bla. b) Fluorescence enhancement of CDA; HRP (1 unit/mL), H2O2 (1 μM), and either viable E. coli expressing TEM-1 Bla or bacterial lysate extracted from equal c.f.u. per milliliter. c) Fluorescence enhancement of CDA incubated with different concentrations of E. coli expressing TEM-1 Bla (H2O2, 1 mM). d) Fluorescent intensity of E. coli and E. coli/TEM-1 preincubated with CDA for 20 hours upon addition of H2O2 (500 μM) for 5 min. Error bars represent ±SD, n=3. * p<0.0332; **p<0.0021, ****p<0.0001, ns: not significant. e) Fluorescence enhancement of CDA incubated with different concentrations of E. coli expressing IMP-1 carbapenemase in the presence of H2O2 (1 mM). f) Fluorescence enhancement of CDA incubated with different concentrations of K. pneumoniae expressing KPC carbapenemase (H2O2, 1 mM). All the studies were duplicated at room temperature with PBS (pH=7.05) as the buffer unless other indicated. The working concentration of CDA was 10 μM. […] Data were collected on a Tecan Safire microplate reader with excitation at 570 nm and emission at 600 nm. […]

[2] = Stability test in H2O2 in PBS; format: physicochemical; conditions: room temperature
Protocol: FIG. 2 illustrates the characterization of CDA with recombinant TEM-1 Bla, esterase, HRP, and H2O2. a) Stability test of CDA in different concentrations of H2O2 in PBS. The signal of PBS was subtracted and the absolute values were plotted. b) Fluorescence enhancement of CDA treated with esterase […], TEM-1 Bla (100 nM) and H2O2 (100 μM or 1 mM). c) Activation of CDA by esterase (1 μg/mL) and TEM-1 Bla (100 nM) with or without oxygen in the reaction. Glass flasks with working solution were continuously vacuumed to maintain a deoxidized environment. Samples were transferred and scanned immediate at each time point in a black 96 well plate. Error bars represent ±SD, n=3. d) Fluorescence enhancement of CDA treated with esterase (1 μg/mL), TEM-1 Bla (100 nM), HRP (1 unit/ml), and H2O2 (1 μM). e) Fluorescence enhancement of different concentrations of CDA treated with esterase (1 μg/mL), TEM-1 Bla (100 nM) and H2O2 (1 mM). f) Fluorescence enhancement of CDA treated with indicated amounts of β-lactamases, esterase (1 μg/mL) and H2O2 (1 mM) after incubation at room temperature for 2 h. […] Data were collected on a Tecan Safire microplate reader with excitation at 570 nm and emission at 600 nm. […]
As oxidation is the essential step in converting β-lactamase/esterase processed CDA to resorufin, the stability of CDA was evaluated in different concentrations of H2O2 (FIG. 2a). […]

## CC(=O)Oc1ccc2c(c1)Oc1cc(OC(C)=O)ccc1N2C(=O)OCc1ccc(SCC2=C(C(=O)O)N3C(=O)[C@@H](NC(=O)Cc4ccccc4)[C@H]3SC2)cc1 [CDA, 3-(((4-(((3,7-diacetoxy-10H-phenoxazine-10-carbonyl)oxy)methyl)phenyl)thio)methyl)-8-oxo-7-(2-phenylacetamido)-5-thia-1-azabicyclo[4.2.0]oct-2-ene-2-carboxylic acid]
[1]
  limit of detection of β-lactamases: 1 femtomole
E. coli/IMP-1
  bacteria concentration detected: 105 c.f.u./mL
[2]; H2O2 1 mM, 2 hours
  stability of the sulfur center in H2O2 (LC-MS): stable
[2]; up to 1 mM H2O2 in PBS, within 2 hours
  spontaneous hydrolysis in H2O2: Almost no spontaneous hydrolysis
